Consider 13 compounds from patent US20260078119A1, “DEGRADER COMPOUNDS AND USES THEREOF” (Bristol-Myers Squibb Company, priority 2024, published 2026).

Assay [1] relates to CAL-51 cells. The assay can be described thus: CAL-51 Cell Proliferation Assay. The class given is cell-based. Particulars: for EC50: Homo sapiens, 120 hours incubation, 10-point dose response, 4-fold dilutions starting at 10 μM, Cell-Titer-Glo, read-out: CAL-51 Prolif EC50; for CAL-51 Prolif Ymin: minimal percent of DMSO control observed in the concentrations tested (Ymin-obs), 120 hours. An outline of the steps: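 Cells seeded at 350/well in RPMI complete medium onto 10-point, 4-fold compound dilutions from 10 μM (0.1% DMSO), in duplicate, and grown 120 h at 37 °C. CellTiter-Glo luminescence, blank-subtracted and normalised to DMSO, was fitted with a four-parameter logistic to give EC50; Ymin-obs is the lowest observed percent of DMSO control.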

In assay [2] the target is T1, FAK (Homo sapiens, UniProt Q05397).
T1 construct: homozygous knock-in of a HiBiT tag (Promega Corporation, Madison, WI) to the C-terminus of the FAK gene in its natural genomic locus; endogenous in cells; host or cells: JHH-4-FAK-HiBiT clone d01 (CRISPR-Cas9 knock-in at the endogenous locus)
T1 sequence (Q05397 whole entry): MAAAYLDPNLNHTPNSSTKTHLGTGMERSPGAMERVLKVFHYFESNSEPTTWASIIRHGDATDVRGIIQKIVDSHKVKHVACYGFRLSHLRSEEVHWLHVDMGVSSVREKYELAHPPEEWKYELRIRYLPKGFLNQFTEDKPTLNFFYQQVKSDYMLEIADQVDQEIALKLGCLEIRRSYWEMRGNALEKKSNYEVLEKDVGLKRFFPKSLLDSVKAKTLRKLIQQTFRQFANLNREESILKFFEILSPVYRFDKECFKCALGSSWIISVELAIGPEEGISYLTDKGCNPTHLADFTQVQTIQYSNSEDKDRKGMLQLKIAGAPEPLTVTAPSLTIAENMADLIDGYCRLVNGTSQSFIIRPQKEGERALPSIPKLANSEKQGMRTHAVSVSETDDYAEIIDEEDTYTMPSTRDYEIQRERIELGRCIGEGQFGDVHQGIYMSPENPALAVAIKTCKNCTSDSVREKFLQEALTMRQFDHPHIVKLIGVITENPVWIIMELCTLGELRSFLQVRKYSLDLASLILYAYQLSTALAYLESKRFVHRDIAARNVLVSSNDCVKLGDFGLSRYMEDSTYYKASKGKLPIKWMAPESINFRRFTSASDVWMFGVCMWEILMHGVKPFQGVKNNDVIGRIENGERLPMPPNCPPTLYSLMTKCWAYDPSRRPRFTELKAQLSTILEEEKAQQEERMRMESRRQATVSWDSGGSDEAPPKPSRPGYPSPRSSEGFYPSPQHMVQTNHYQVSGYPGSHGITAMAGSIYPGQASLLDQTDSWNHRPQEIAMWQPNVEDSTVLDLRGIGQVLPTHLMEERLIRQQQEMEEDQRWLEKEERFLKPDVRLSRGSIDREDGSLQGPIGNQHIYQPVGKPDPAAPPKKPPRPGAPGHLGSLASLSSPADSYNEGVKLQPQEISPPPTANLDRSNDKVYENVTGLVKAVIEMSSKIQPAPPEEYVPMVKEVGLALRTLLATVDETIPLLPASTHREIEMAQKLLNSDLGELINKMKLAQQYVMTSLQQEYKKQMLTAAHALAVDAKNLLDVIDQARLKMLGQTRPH
Put plainly: FAK-HiBiT Degradation Assay. The class given is cell-based. Particulars: for DC50: JHH-4-FAK-HiBiT clone d01 cells, two hours incubation, 10-point dose response, 3-fold dilution starting at 1 μM, Nano-Glo HiBiT luminescence, read-out: FAK HiBiT EC50; for FAK HiBiT Ymin: lower limit of the four parameter fit (value A), Ymax derived using DMSO control, JHH-4-FAK-HiBiT cells, two hours. An outline of the steps: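 JHH-4 cells with homozygous CRISPR knock-in of C-terminal HiBiT on endogenous FAK, treated 2 h at 37 °C with compounds in 10-point 3-fold series from 1 μM. HiBiT lytic luminescence read; EC50 from four-parameter logistic fit, Ymax set by DMSO control, Ymin as lower fit limit.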
A general note: HiBiT is a short tag that completes a luciferase, so light tracks the accessible tagged protein.

The EC50 is the concentration giving half of the maximal effect.

SMILES strings stand for the structures.

Regarding `O=C1CC[C@H](N2Cc3cc(Cn4ncc5c(-c6ccc(F)cc6F)cc(N6CC(F)C6)nc54)ccc3C2=O)C(=O)N1` [Example 30, (3S)-3-(5-{[4-(2,4-difluorophenyl)-6-(3-fluoroazetidin-1-yl)-1H-pyrazolo[3,4-b]pyridin-1-yl]methyl}-1-oxo-2,3-dihydro-1H-isoindol-2-yl)piperidine-2,6-dione], in assay [1], the EC50 turned out to be 0.77 nM and the “CAL-51 Prolif Ymin” value was 26.67. Besides, in assay [2], the DC50 amounted to 0.72 nM and the “FAK HiBiT Ymin” value amounted to 7.40.
The matching figures for `O=C1CCC(N2Cc3cc(Cn4ncc5c(-c6ncc(F)cc6Cl)c(F)c(N6CC(F)C6)nc54)ccc3C2=O)C(=O)N1` (stereo not shown) [Example 31, 3-(5-{[4-(3-chloro-5-fluoropyridin-2-yl)-5-fluoro-6-(3-fluoroazetidin-1-yl)-1H-pyrazolo[3,4-b]pyridin-1-yl]methyl}-1-oxo-2,3-dihydro-1H-isoindol-2-yl)piperidine-2,6-dione]: 3.89 nM, 34.80, 0.76 nM and 8.92.
The matching figures for `CCOc1cnc(-c2cc(N3CC(F)C3)nc3c2cnn3Cc2ccc3c(c2)CN([C@H]2CCC(=O)NC2=O)C3=O)c(C(F)(F)F)c1` [Example 32, (3S)-3-[5-({4-[5-ethoxy-3-(trifluoromethyl)pyridin-2-yl]-6-(3-fluoroazetidin-1-yl)-1H-pyrazolo[3,4-b]pyridin-1-yl}methyl)-1-oxo-2,3-dihydro-1H-isoindol-2-yl]piperidine-2,6-dione]: 0.44 nM, 9.16, 0.82 nM and 9.44.
In the case of `O=C1CCC(N2Cc3cc(Cn4ncc5c(-c6ncc(C(F)(F)F)cc6Cl)cc(N6CC(F)C6)nc54)cc(F)c3C2=O)C(=O)N1` (stereo not shown) [Example 33, 3-[5-({4-[3-chloro-5-(trifluoromethyl)pyridin-2-yl]-6-(3-fluoroazetidin-1-yl)-1H-pyrazolo[3,4-b]pyridin-1-yl}methyl)-7-fluoro-1-oxo-2,3-dihydro-1H-isoindol-2-yl]piperidine-2,6-dione], in assay [1], the EC50 came out at 0.51 nM and the “CAL-51 Prolif Ymin” value is 26.78. In assay [2], the DC50 is 0.91 nM and the “FAK HiBiT Ymin” value turned out to be 5.36.
For `O=C1CCC(N2Cc3cc(Cn4ncc5c(-c6ncc(C(F)(F)F)cc6Cl)cc(N6CC(F)C6)nc54)ccc3C2=O)C(=O)N1` (stereo not shown) [Example 34, 3-[5-({4-[3-chloro-5-(trifluoromethyl)pyridin-2-yl]-6-(3-fluoroazetidin-1-yl)-1H-pyrazolo[3,4-b]pyridin-1-yl}methyl)-1-oxo-2,3-dihydro-1H-isoindol-2-yl]piperidine-2,6-dione] the same measures were 1.08 nM, 26.10, 0.91 nM and 8.98.
`O=C1CCC(N2Cc3cc(Cn4ncc5c(-c6ncc(Cl)cc6Cl)cc(N6CC(F)C6)nc54)ccc3C2=O)C(=O)N1` (stereo not shown) [Example 35, 3-(5-{[4-(3,5-dichloropyridin-2-yl)-6-(3-fluoroazetidin-1-yl)-1H-pyrazolo[3,4-b]pyridin-1-yl]methyl}-1-oxo-2,3-dihydro-1H-isoindol-2-yl)piperidine-2,6-dione]: in assay [1], the EC50 came out at 0.59 nM and the “CAL-51 Prolif Ymin” value amounted to 21.28. In assay [2], the DC50 is 0.97 nM and the “FAK HiBiT Ymin” value worked out at 10.02.
As for `O=C1CCC(N2Cc3cc(Cn4ncc5c(-c6ncccc6Cl)c(F)c(N6CC(F)C6)nc54)ccc3C2=O)C(=O)N1` (stereo not shown) [Example 36, 3-(5-{[4-(3-chloropyridin-2-yl)-5-fluoro-6-(3-fluoroazetidin-1-yl)-1H-pyrazolo[3,4-b]pyridin-1-yl]methyl}-1-oxo-2,3-dihydro-1H-isoindol-2-yl)piperidine-2,6-dione], in assay [1], the EC50 is 0.5 nM and the “CAL-51 Prolif Ymin” value was determined as 24.38. For the same compound, in assay [2], the DC50 turned out to be 0.98 nM and the “FAK HiBiT Ymin” value was found to be 8.36.
The matching figures for `Cc1cc(Cl)cnc1-c1c(F)c(N2CC(F)C2)nc2c1cnn2Cc1ccc2c(c1)CN(C1CCC(=O)NC1=O)C2=O` (stereo not shown) [Example 37, 3-(5-{[4-(5-chloro-3-methylpyridin-2-yl)-5-fluoro-6-(3-fluoroazetidin-1-yl)-1H-pyrazolo[3,4-b]pyridin-1-yl]methyl}-1-oxo-2,3-dihydro-1H-isoindol-2-yl)piperidine-2,6-dione]: 0.6 nM, 19.81, 0.98 nM and 7.33.
For `O=C1CCC(N2Cc3cc(Cn4ncc5c(-c6ncccc6Cl)c(Cl)c(N6CC(F)C6)nc54)ccc3C2=O)C(=O)N1` (stereo not shown) [Example 38, 3-(5-{[5-chloro-4-(3-chloropyridin-2-yl)-6-(3-fluoroazetidin-1-yl)-1H-pyrazolo[3,4-b]pyridin-1-yl]methyl}-1-oxo-2,3-dihydro-1H-isoindol-2-yl)piperidine-2,6-dione] the same measures were 0.48 nM, 21.89, 1.09 nM and 8.19.
The matching figures for `CCOc1ccc(-c2cc(N3CC(F)C3)nc3c2cnn3Cc2ccc3c(c2)CN([C@H]2CCC(=O)NC2=O)C3=O)c(C)c1` [Example 39, (3S)-3-(5-{[4-(4-ethoxy-2-methylphenyl)-6-(3-fluoroazetidin-1-yl)-1H-pyrazolo[3,4-b]pyridin-1-yl]methyl}-1-oxo-2,3-dihydro-1H-isoindol-2-yl)piperidine-2,6-dione]: 0.82 nM, 28.13, 1.12 nM and 7.78.
For the compound `O=C1CCC(N2Cc3c(ccc(Cn4ncc5c(-c6ncc(C(F)(F)F)cc6Cl)cc(N6CC(F)C6)nc54)c3F)C2=O)C(=O)N1` (stereo not shown) [Example 40, 3-[5-({4-[3-chloro-5-(trifluoromethyl)pyridin-2-yl]-6-(3-fluoroazetidin-1-yl)-1H-pyrazolo[3,4-b]pyridin-1-yl}methyl)-4-fluoro-1-oxo-2,3-dihydro-1H-isoindol-2-yl]piperidine-2,6-dione], in assay [1], the EC50 is 11.2 nM and the “CAL-51 Prolif Ymin” value is reported as 36.00. Further, in assay [2], the DC50 was 1.15 nM and the “FAK HiBiT Ymin” value is reported as 6.87.
The matching figures for `N#Cc1ccc(-c2c(F)c(N3CC(F)C3)nc3c2cnn3Cc2ccc3c(c2)CN(C2CCC(=O)NC2=O)C3=O)c(F)c1` (stereo not shown) [Example 41, 4-(1-{[2-(2,6-dioxopiperidin-3-yl)-1-oxo-2,3-dihydro-1H-isoindol-5-yl]methyl}-5-fluoro-6-(3-fluoroazetidin-1-yl)-1H-pyrazolo[3,4-b]pyridin-4-yl)-3-fluorobenzonitrile]: 1.23 nM, 26.68, 1.22 nM and 10.49.
For `O=C1CC[C@H](N2Cc3cc(Cn4ncc5c(-c6ncc(F)cc6Cl)cc(N6CC(F)C6)nc54)cc(F)c3C2=O)C(=O)N1` [Example 42, (3S)-3-(5-{[4-(3-chloro-5-fluoropyridin-2-yl)-6-(3-fluoroazetidin-1-yl)-1H-pyrazolo[3,4-b]pyridin-1-yl]methyl}-7-fluoro-1-oxo-2,3-dihydro-1H-isoindol-2-yl)piperidine-2,6-dione] the same measures were 1.92 nM, 24.80, 1.24 nM and 5.70.
